Experiments:
Format in all cases: physicochemical
[1] = Viscosity of the compound itself (Gemini II, Malvern); details: 25° C., at shear velocity of 92 1/s
Protocol: In addition, the amphipathic compound to be used for the adhesion preventing agent of the present invention has low viscosity in itself. Specifically, the amphipathic compound to be used for the adhesion preventing agent of the present invention has a viscosity of preferably 15.0 Pa·s or less, more preferably 11.0 Pa·s or less, and further preferably 6.0 Pa·s or less as measured at 25° C. in itself. The viscosity can be measured using, for example, a viscosity and viscoelasticity measuring apparatus (Gemini II, Malvern Instruments Ltd.) at 25° C.
The viscosity of each of the compounds described in the Examples 1-7 was measured using a viscosity/viscoelasticity measuring instrument (Gemini II, Malvern) at the temperature of 25° C.

[2] = SAXS analysis of compound/water system (liquid crystal formation); details: compound/water system gel, 50% by mass in water-excess condition, room temperature (25° C.)
Description: Whether or not a liquid crystal structure has a cubic lattice may be determined by a small-angle X-ray scattering (SAXS) method, for the purpose of confirming liquid crystal formation. First, an amphipathic compound/water system sample with a predetermined concentration can be filled into an X-ray capillary tube made of quartz, for example, and the capillary tube is sealed with an oxy-fuel burner, and subjected to SAXS assay.
Mono-O-(5,9,13-trimethyltetradeca-4,8,12-trienoyl)glycerol synthesized in Example 1 and pure water were introduced into a mixing device at the concentration of 50% by mass of mono-O-(5,9,13-trimethyltetradeca-4,8,12-trienoyl)glycerol (in water-excess condition), and they were mixed at room temperature (25° C.) and left for 24 hours to obtain a homogeneous mixture. Then the separated water was removed. Thus, a sample of mono-O-(5,9,13-trimethyltetradeca-4,8,12-trienoyl)glycerol/water system was obtained as a white turbid to colorless transparent gel composition in appearance (it was referred to below as the gel sample).
Subsequently, the gel sample was analyzed by small-angle x-ray scattering (SAXS). The NANO-Viewer nano-scale X-ray structure analysis equipment (Rigaku) was used for SAXS analysis, which was performed by X-ray irradiation at room temperature (25° C.), 40 kV, 50 mA, wavelength λ=0.1542 nm (Cu-Kα).
Each of the compounds synthesized in Example 32, 33, 43, 45, 49, and 50 and water were homogeneously mixed in accordance with the same procedure as in Example 9 to obtain a sample of each compound/water system being a gel in appearance. SAXS analysis of these gel samples was performed in the same manner as in Example 9. […]

[3] = Shear viscosity of liquid crystal gels; details: gel prepared by addition of water, 25° C.
Protocol: (§1) The viscosity was measured for the gels prepared by addition of water to the compounds synthesized in Examples 1, 4, and 5. Specifically, for the gel samples obtained by mixing homogeneously according to the same procedure as in Example 9, the shear viscosity was measured at a temperature of 25° C., using a viscosity and viscoelasticity measuring apparatus (Gemini II, Malvern Instruments Ltd.; cone plate φ25, cone angle 1°).
as §1, with “45” for “1, 4,”, “50, and C17 glycerin ester synthesized in Example 13.” for “5.”

Structure (SMILES) | Viscosity [1] | liquid crystal structure (SAXS peak value ratio) [2] | further results
CC(C)=CCC/C(C)=C/CC/C(C)=C/CCC(C)=CCCC(=O)OCC(O)CO (racemic) [Example 4, mono-O-(5,9,13,17-tetramethyloctadeca-4,8,12,16-tetraenoyl)glycerol] | 0.37 Pa·s | reverse hexagonal liquid crystal | Viscosity ([3]; shear velocity 12 1/s): 39 Pas · sec; Viscosity ([3]; shear velocity 100.8 1/s): 1.4 Pas · sec
CC(C)=CCC/C(C)=C/CC/C(C)=C/CCC(C)=CCCC(=O)OCC(CO)(CO)CO (racemic) [Example 6, mono-O-(5,9,13,17-tetramethyloctadeca-4,8,12,16-tetraenoyl)pentaerythritol] | 3.3 Pa·s | cubic liquid crystal that belongs to the crystallographic space group Pn3m | –
CC(C)=CCC/C(C)=C/CCC(C)=CCCCOCC(O)CO (racemic) [Example 31, mono-O-(5,9,13-trimethyltetradeca-4,8,12-trienyl)glycerol] | 0.23 Pa·s | – | –
CC(C)=CCC/C(C)=C/CCC(C)=CCCCOCC(CO)(CO)CO (racemic) [Example 33, mono-O-(5,9,13-trimethyltetradeca-4,8,12-trienyl)pentaerythritol] | 0.63 Pa·s | cubic liquid crystals that belong to the crystallographic space group Pn3m | –
CC(C)=CCC/C(C)=C/CC/C(C)=C/CCC(C)=CCOCC(CO)(CO)CO (racemic) [Example 46, mono-O-(3,7,11,15-tetramethylhexadeca-2,6,10,14-tetraenyl)pentaerythritol] | 2.9 Pa·s | – | –
CC(C)=CCC/C(C)=C/CC/C(C)=C/CCC(C)=CCOC(=O)C(O)CO (racemic) [Example 52, 3,7,11,15-tetramethylhexadeca-2,6,10,14-tetraenyl glycerate] | 0.23 Pa·s | – | –
CC(C)=CCC/C(C)=C/CCC(C)=CCCC(=O)OCC(O)CO (stereo not drawn) [Example 1, mono-O-(5,9,13-trimethyltetradeca-4,8,12-trienoyl)glycerol] | 0.26 Pa·s | cubic liquid crystal that belongs to the crystallographic space group Pn3m | Viscosity ([3]; shear velocity 12 1/s): 461 Pas · sec; Viscosity ([3]; shear velocity 100.8 1/s): 37 Pas · sec
CC(C)=CCC/C(C)=C/CCC(C)=CCCC(=O)OCC(O)C(O)CO (stereo not drawn) [Example 2, mono-O-(5,9,13-trimethyltetradeca-4,8,12-trienoyl)erythritol] | 4.7 Pa·s | – | –
CC(C)=CCC/C(C)=C/CC/C(C)=C/CCC(C)=CCCC(=O)OCC(O)COCC(O)CO (stereo not drawn) [Example 7, mono-O-(5,9,13,17-tetramethyloctadeca-4,8,12,16-tetraenoyl)diglycerol] | 2.6 Pa·s | – | –
CC(C)=CCC/C(C)=C/CCC(C)=CC(=O)OCC(O)CO (stereo not drawn) [Example 27, mono-O-(3,7,11-trimethyldodeca-2,6,10-trienoyl)glycerol] | 3.0 Pa·s | – | –
CC(C)=CCC/C(C)=C/CCC(C)=CCCCOCC(O)C(O)CO (stereo not drawn) [Example 32, mono-O-(5,9,13-trimethyltetradeca-4,8,12-trienyl)erythritol] | 1.2 Pa·s | cubic liquid crystals that belong to the crystallographic space group Pn3m | –
CC(C)=CCC/C(C)=C/CCC(C)=CCCCOCC(O)COCC(O)CO (stereo not drawn) [Example 34, mono-O-(5,9,13-trimethyltetradeca-4,8,12-trienyl)diglycerol] | 0.37 Pa·s | – | –
CC(C)=CCC/C(C)=C/CC/C(C)=C/CCC(C)=CCOCC(O)C(O)CO (stereo not drawn) [Example 45, mono-O-(3,7,11,15-tetramethylhexadeca-2,6,10,14-tetraenyl)erythritol] | 1.9 Pa·s | cubic liquid crystals that belong to the crystallographic space group Pn3m | Viscosity ([3]; shear velocity 10 1/s): 314 Pas · sec; Viscosity ([3]; shear velocity 105 1/s): 4.3 Pas · sec
CC(C)=CCCC(C)=CCCC(C)=CCCC(C)=CCCCOCC(O)CO (stereo not drawn) [Example 48, mono-O-(5,9,13,17-tetramethyloctadeca-4,8,12,16-tetraenyl)glycerol] | 0.16 Pa·s | – | –
CC(C)=CCC/C(C)=C/CC/C(C)=C/CCC(C)=CCCCOCC(O)C(O)CO (stereo not drawn) [Example 49, mono-O-(5,9,13,17-tetramethyloctadeca-4,8,12,16-tetraenyl)erythritol] | – | reverse hexagonal liquid crystals | –
CC(C)=CCC/C(C)=C/CC/C(C)=C/CCC(C)=CCCCOCC(O)COCC(O)CO (stereo not drawn) [Example 51, mono-O-(5,9,13,17-tetramethyloctadeca-4,8,12,16-tetraenyl)diglycerol] | 1.4 Pa·s | – | –
CC(=CC(=O)OCC(O)CO)CCCC(C)CCCC(C)C (stereo not drawn) [Example 54, mono-O-(3,7,11-trimethyldodec-2-enoyl)glycerol] | 0.45 Pa·s | – | –
CC(=CCCCOCC(O)CO)CCCC(C)CCCC(C)CCCC(C)C (stereo not drawn) [Example 58, mono-O-(5,9,13,17-tetramethyloctadec-4-enyl)glycerol] | 0.44 Pa·s | – | –

Now from value to compound, other results behind:

Viscosity [1] | Structure (SMILES) | liquid crystal structure (SAXS peak value ratio) [2] | further results
2.5 Pa·s | CC(C)=CCC/C(C)=C/CCC(C)=CCCC(=O)OCC(CO)(CO)CO (racemic) [Example 3, mono-O-(5,9,13-trimethyltetradeca-4,8,12-trienoyl)pentaerythritol] | – | –
0.20 Pa·s | CC(C)=CCC/C(C)=C/CCC(C)=CCOCC(O)CO (racemic) [Example 28, mono-O-(3,7,11-trimethyldodeca-2,6,10-trienyl)glycerol] | – | –
1.6 Pa·s | CC(C)=CCC/C(C)=C/CCC(C)=CCOCC(CO)(CO)CO (racemic) [Example 30, mono-O-(3,7,11-trimethyldodeca-2,6,10-trienyl)pentaerythritol] | – | –
3.8 Pa·s | CC(C)=CCC/C(C)=C/CC/C(C)=C/CCC(C)=CC(=O)OCC(O)CO (racemic) [Example 41, mono-O-(3,7,11,15-tetramethylhexadeca-2,6,10,14-tetraenoyl)glycerol] | – | –
14 Pa·s | CC(C)=CCC/C(C)=C/CC/C(C)=C/CCC(C)=CC(=O)OCC(CO)(CO)CO (racemic) [Example 43, mono-O-(3,7,11,15-tetramethylhexadeca-2,6,10,14-tetraenoyl)pentaerythritol] | reverse hexagonal liquid crystals | –
0.26 Pa·s | CC(C)=CCC/C(C)=C/CC/C(C)=C/CCC(C)=CCOCC(O)CO (racemic) [Example 44, mono-O-(3,7,11,15-tetramethylhexadeca-2,6,10,14-tetraenyl)glycerol] | – | –
0.21 Pa·s | CC(C)=CCC/C(C)=C/CC/C(C)=C/CCC(C)=CCCCOC(=O)C(O)CO (racemic) [Example 53, 5,9,13,17-tetramethyloctadeca-4,8,12,16-tetraenyl glycerate] | – | –
5.8 Pa·s | CC(C)=CCC/C(C)=C/CC/C(C)=C/CCC(C)=CCCC(=O)OCC(O)C(O)CO (stereo not drawn) [Example 5, mono-O-(5,9,13,17-tetramethyloctadeca-4,8,12,16-tetraenoyl)erythritol] | cubic liquid crystal that belongs to the crystallographic space group Pn3m | Viscosity ([3]; shear velocity 12 1/s): 333 Pas · sec; Viscosity ([3]; shear velocity 100.8 1/s): 17 Pas · sec
0.48 Pa·s | CC(=CCCC(=O)OCC(O)CO)CCCC(C)CCCC(C)C (stereo not drawn) [Example 13, mono-O-(5,9,13-trimethyltetradec-4-enoyl)glycerol] | – | Viscosity ([3]; shear velocity 10 1/s): 1878 Pas · sec; Viscosity ([3]; shear velocity 105 1/s): 166 Pas · sec
0.16 Pa·s | CC(C)=CCC/C(C)=C/CCC(C)=CCCCOC(=O)C(O)CO (stereo not drawn) [Example 36, 5,9,13-trimethyltetradeca-4,8,12-trienyl glycerate] | – | –
10.6 Pa·s | CC(=CC(=O)OCC(CO)(CO)CO)CCCC(C)CCCC(C)CCCC(C)C (stereo not drawn) [Example 55, mono-O-(3,7,11,15-tetramethylhexadec-2-enoyl)pentaerythritol] | – | –
0.98 Pa·s | CC(=CCCCOCC(CO)(CO)CO)CCCC(C)CCCC(C)C (stereo not drawn) [Example 56, mono-O-(5,9,13-trimethyltetradec-4-enyl)pentaerythritol] | – | –

From patent US20160067208A1, “ADHESION PREVENTING AGENT” (FARNEX INCORPORATED, priority 2013, published 2016)
